According to patent US4610976A, “Porcine GRF” (The Salk Institute for Biological Studies, priority 1983, dated 1986):

System: cells of rat pituitary glands
Assay: in vitro growth hormone release assay in rat pituitary cell monolayer cultures (ir GH by radioimmunoassay)
Assay type: cell-based
Settings: equimolar concentrations, side-by-side with synthetic hGRF(1-44)-NH2; incubation 3 to 4 hours; ir GH in culture medium
Method: To determine the effectiveness of the peptide to promote the release of growth hormone, in vitro assays are carried out using synthetic hGRF(1-44)-NH2 in side-by-side comparison with equimolar concentrations of the extracted and purified pGRF(1-44) of Example II and of a GRF Reference Standard having a known effectiveness to promote the release of growth hormone from pituitary cells. The GRF Reference standard is described and defined in Brazeau, et al., Endocrinology, Vol. 110, A538(1982) and is an amount of a preparation of rat hypothalamic origin that produces a half-maximal response in terms of GH release in a pituitary cell monolayer bioassay. Cultures are used which include cells of rat pituitary glands removed some four to five days previously. Both cultures of a defined standard medium and cultures which are considered optimal for the secretion of growth hormone are used for the comparative testing, in the general manner described in Brazeau, et al. Regulatory Peptides, 1, 255, 1981. Incubation with the substance to be tested is carried out for 3 to 4 hours, and aliquots of the culture medium are removed and processed to measure their contents in inmunoreactive GH(ir GH) by a well-characterized radioimmunoassay.

For “Tyr-Ala-Asp-Ala-Ile-Phe-Thr-Asn-Ser-Tyr-Arg-Lys-Val-Leu-Gly-Gln-Leu-Ser-Ala-Arg-Lys-Leu-Leu-Gln-Asp-Ile-Met-Ser-Arg-Gln-Gln-Gly-Glu-Arg-Asn-Gln-Glu-Gln-Gly-Ala-Arg-Val-Arg-Leu (YADAIFTNSYRKVLGQLSARKLLQDIMSRQQGERNQEQGARVRL; printed: Tyr-Ala-Asp-Ala-Ile-Phe-Thr-Asn-Ser-Tyr-Arg-Lys-Val-Leu-Gly-Gln-Leu-Ser-Ala-Arg-Lys-Leu-Leu-Gln-Asp-Ile-Met-Ser-Arg-Gln-Gln-Gly-Glu-Arg-Asn-Gln-Glu-Gln-Gly-Ala-Arg-Val-Arg-Leu) [pGRF(1-44), 44-residue polypeptide isolated from purified extracts of porcine hypothalami]”, the “intrinsic biological activity to promote the release of growth hormone, compared with synthetic hGRF(1-44)-NH2” value was “full intrinsic biological activity of the synthetic peptide” and the “potency to promote the release of growth hormone, compared with synthetic hGRF(1-44)-NH2” value was “close to the same potency”.
